In patent publication US20080014247A1, “METAL-CONTAINING FORMULATIONS AND METHODS OF USE” (Nucryst Pharmaceuticals, priority 2006, published 2008):
Entries after “also recorded” stand apart in the source; their conditions may differ.

How the values were obtained:
C. freundii = assay: Minimal bactericidal concentration (MBC) assay; assay type: cell-based, Citrobacter freundii; details: isolate NP410
Description: (§1) Minimal bactericidal concentration (MBC) assay—Overnight-grown MIC plates, prepared as described in Example 16, were evaluated to determine the MIC. Culture was then sampled from wells at and near the MIC using sterile inoculating loops, and transferred to fresh MHA plates to determine if viable bacteria remained. […] The MBC was determined as the well in the MIC plate which contained the lowest concentration of silver yielding no bacterial growth on the MHA plate.

Strep. pyogenes = assay: Minimal bactericidal concentration (MBC) assay; assay type: cell-based, Streptococcus pyogenes
Description: as §1

E. coli = assay: Minimal bactericidal concentration (MBC) assay; assay type: cell-based, Escherichia coli
Description: as §1

Shigella flexneri = assay: MIC assay (microdilution); assay type: cell-based; details: ATCC 12022
Serratia marcescens = assay: MIC assay (microdilution); assay type: cell-based
Streptococcus pyogenes = assay: MIC assay (microdilution); assay type: cell-based
Staphylococcus aureus = assay: MIC assay (microdilution); assay type: cell-based
[1] = system: Staphylococcus epidermidis; assay: MIC assay (microdilution); assay type: cell-based
K. pneumoniae = assay: Minimal bactericidal concentration (MBC) assay; assay type: cell-based, Klebsiella pneumoniae
Description: as §1

Burkholderia multivorans = assay: MIC assay (microdilution); assay type: cell-based
Streptococcus pneumoniae = assay: MIC assay (microdilution); assay type: cell-based; details: lactate solutions
Proteus mirabilis = assay: MIC assay (microdilution); assay type: cell-based; details: isolate NP405
Staph. aureus = assay: Minimal bactericidal concentration (MBC) assay; assay type: cell-based, Staphylococcus aureus
Description: as §1

Enterobacter cloacae = assay: MIC assay (microdilution); assay type: cell-based
B. multivorans = assay: Minimal bactericidal concentration (MBC) assay; assay type: cell-based, Burkholderia multivorans
Description: as §1

[2] = system: Mycobacterium tuberculosis H37Ra (ATCC 25177); assay: microbe, parasite or virus in culture; assay type: cell-based
B dolosa = assay: Minimal bactericidal concentration (MBC) assay; assay type: cell-based, Burkholderia dolosa
Description: as §1

Klebsiella pneumoniae = assay: MIC assay (microdilution); assay type: cell-based
Burkholderia dolosa = assay: MIC assay (microdilution); assay type: cell-based
Pseudomonas aeruginosa = assay: MIC assay (microdilution); assay type: cell-based
Ps. aeruginosa = assay: Minimal bactericidal concentration (MBC) assay; assay type: cell-based, Pseudomonas aeruginosa
Description: as §1

Ser. marcescens = assay: Minimal bactericidal concentration (MBC) assay; assay type: cell-based, Serratia marcescens
Description: as §1

Citrobacter freundii = assay: MIC assay (microdilution); assay type: cell-based; details: isolate NP410
Escherichia coli = assay: MIC assay (microdilution); assay type: cell-based
Prot. mirabilis = assay: Minimal bactericidal concentration (MBC) assay; assay type: cell-based, Proteus mirabilis; details: isolate NP405
Description: as §1

Staph epidermidis = assay: Minimal bactericidal concentration (MBC) assay; assay type: cell-based, Staphylococcus epidermidis
Description: as §1

DNBS-induced colitis [3] = assay: DNBS-induced colitis in rat: colon histopathological inflammation score; assay type: in vivo; details: oral 100 mg/kg, five days
Description: Histopathology: A piece of colonic tissue at 2-4 cm proximal to the anus was excised and fixed in 10% formalin and the sections were stained with hematoxylin and eosin. The remaining length of the colonic tissues was stored at −80° C. for subsequent biochemical assays. The histology slides were examined by a veterinary pathologist who was blinded to the treatment groups. The extent of microscopic mucosal damage of the colon was scored on scale of 0-5 as described with slight modification: 0=normal histological appearance; 1=histological damage limited to surface epithelium, mild infiltration of the submucosa; 2=focal ulceration and cell disruption limited to mucosa, abnormal appearance of colonic wall, mild infiltration of inflammatory cells; 3=focal, transmural inflammation and ulceration, with mild to moderate infiltration of inflammatory cells; 4=Extensive transmural ulceration and inflammation bordered by areas of normal mucosa, moderate infiltration of inflammatory cells; 5=extensive transmural ulceration and inflammation involving entire section from epithelium to serosa, severe infiltration of inflammatory cells.

MMP-9 [4] = assay: Gelatin zymography of colonic homogenates; assay type: in vivo, rat; details: oral 100 mg/kg
Description: Gelatin Zymography Activities of MMP-9 and MMP-2 in colonic tissue homogenates were determined by gelatin zymography as described previously. Briefly, colonic homogenates were mixed with equal volume of zymograph sample buffer. Samples were loaded on a 10% SDS-polyacrylamide gel containing 0.1% gelatin. After electrophoresis, the SDS was removed from the gel by incubation with renaturing buffer containing 2% Triton-X-100 for 1 hour. The gel was incubated overnight in developing buffer containing 50 mM Tris-HCl, pH 7.8, 5 mM CaCl2, 0.2 M NaCl, 0.02% Brij-35. The gel was subsequently stained with Coumassie blue for 30 minutes and destained with destaining solution containing 8% acetic acid and 4% methanol. Gelatinolytic activity was determined as transparent bands against the blue background of stained gelatin. MMPs were identified by their molecular weight compared with the standards. Absence of a transparent band on the gel was evidenced as no MMP-9 or MMP-2 activity of the sample tested.

[5] = DNBS-induced colitis in rat: body weight; assay type: in vivo; details: rats with DNBS colitis, intracolonic or oral treatment
TNF-α = assay: Immunohistochemical staining of colon tissue; assay type: in vivo, rat; details: oral treatment, five days
Description: (§2) Immunohistochemistry: A Universal Streptavidin/Biotin detection system (Thermo Shandon, Pittsburgh, Pa.) was used for immunohistochemical staining of formalin fixed, paraffin embedded biopsies of the colon. After dewaxing, and hydration, sections were treated with protein blocking agent to reduce non-specific binding of antibodies. The tissues were then incubated with rabbit anti-rat TNF-α, or mouse anti-rat IL-12 p70 antibodies (Biosource International, Inc, Camarillo, Calif.); rabbit anti-rat IL-1β (Serotec, Raleigh, N.C.) or rabbit anti-rat MMP-9 antibody (Chemicon International, Telecuma, Calif.) in 1% bovine serum albumin in phosphate buffered saline. Incubations with secondary antibodies, streptavidin/biotin, and chromogenic detection of peroxidase were performed according to the manufacturer's protocol. Sections were counterstained, dehydrated, mounted and examined. The intensity of the immuno-peroxidase staining was graded as described previously. Expression of cytokines was graded as: 0, no staining in the section; 1, less than 25% of the section; 2, 25-50% of the section; 3, 50-75% of the section; 4, >75% of the section with significant staining.

MMP-9 [6] = assay: Immunohistochemical staining of colon tissue; assay type: in vivo, rat; details: oral treatment, five days
Description: as §2

IL-1β = assay: Immunohistochemical staining of colon tissue; assay type: in vivo, rat; details: oral treatment, five days
Description: as §2

DNBS-induced colitis [7] = assay: DNBS-induced colitis in rat: total IBD score; assay type: in vivo; details: five days
Description: Animals: Male Sprague-Dawley rats, weighing approximately 250-300 gm were purchased from Charles River Laboratories (Raleigh, N.C.). The animals were housed under standard conditions with free access to food and water. They were acclimatized for 2-3 days before commencing the experiments. The study protocol was approved by the Institutional Animal Care and Use Committees (IACUC).
Induction of ulcerative colitis: Colitis was produced according to published methods. Animals were anesthetized by intraperitoneal injection of 75 mg/kg of ketamine plus 5 mg/kg of xylazine. A single intracolonic injection of 120 mg/ml of dinitrobenzenesulfonic acid (DNBS) (Sigma Chemicals, St. Louis, Mo.) in 250 micro liter of 50% ethanol was administered through a Tom Cat catheter (Kendall Sovereign, Mansfield, Mass.) with a closed-end tip, connected to a 1 ml syringe and placed 7 cm proximal to the anus. Lubricant was applied to the tip of the catheter before injection, to protect from mucosal injury. After instillation of DNBS, 0.5 ml of air was insufflated and the catheter was removed.
Sulfasalazine (Sigma Chemicals, St Louis, Mo.), at a concentration of 120 mg/ml for intracolonic treatment and 30 mg/ml for oral treatment was used as the reference drug in all the experiments. Sulfasalazine was first dissolved in 0.1M NaOH at a concentration about 30-fold higher than the required final concentration, and then suspended in 1.5% PVA for oral dosing and 5.7% PVA for intracolonic dosing.
One group was not treated and served as no treatment group. Treatment began one day after administration of DNBS.
Macroscopic Observations: Body weight was recorded daily and the animals were examined for their physical appearance. After five days of treatment, animals were sacrificed. The colon was excised between the ileocecal junction and rectum, and opened longitudinally. After scoring of the consistency of the stool the colon was rinsed in normal saline, examined and thickness of the colonic wall and number and size of ulcers were scored. Stool consistency was graded on a scale of 0-3: 0=normal stool, well formed pellets rigid as normal; 1=loose stool, formed pellet with moisture, soft stool keeping in stool shape; 2=loose stool, stools that have abnormal form with much moisture, softer shapeless stool; 3=watery or bloody diarrhea.
Thickness of colonic wall was graded on a scale of 0-4: 0=normal, no thickness; 1=mild thickness in lower portion of the colon; 2=moderate thickness in localized area; 3=moderate thickness extending to the central portion of the colon; 4=severe thickness in the whole colon. Colonic ulceration was graded on a scale of 0-10: 0=no ulcers; 1=one small ulcer less than 2-3 mm; 2=one large ulcer more than 2-3 mm; 3=two large ulcerations more than 2-3 mm in diameter; 4=two or more sites of ulcerations extending 1 cm along the length; 5-10=when an area of ulceration extended more than 1 cm along the length of the colon, the score increases by 1 for each additional cm of involvement. The total IBD score, obtained by the sum of the scores of colonic ulcer, colon thickness and stool consistency for each animal, was calculated for each treatment group.
Methods: Colitis was induced in rats using DNBS as described in Example 25. Animals were treated intracolonically (250 μl of the test reagents) once a day for five days. […] Methods: Colitis was induced in rats using DNBS as described in Example 25. Animals were treated intracolonically (250 μl of the test reagents) once a day for five days.

## O=[N+]([O-])[O-].[Ag+] [AgNO3, silver nitrate]
C. freundii
  MBC: 3 parts silver per million
Strep. pyogenes; isolate NP303
  MBC: 10 parts silver per million
Strep. pyogenes; isolate NP304
  MBC: 21 parts silver per million
Strep. pyogenes; isolate NP306
  MBC: 21 parts silver per million
E. coli; ATCC 8739
  MBC: 0.4 parts silver per million
E. coli; ATCC 43745
  MBC: 0.4 parts silver per million
E. coli; isolate NP412
  MBC: 1 parts silver per million
Shigella flexneri; formulation type Lactate
  MIC: 2 ppm
Shigella flexneri; formulation type Water/Lecithin
  MIC: 2 ppm
Shigella flexneri; formulation type Water/PVA
  MIC: 1 ppm
Serratia marcescens; aerobic +
  MIC: 6 µg/mL
Serratia marcescens; aerobic − (anaerobic)
  MIC: 13 µg/mL
Serratia marcescens; isolate NP402
  MIC: 6 parts silver per million
Serratia marcescens; isolate NP402, second entry
  MIC: 6 parts silver per million
Serratia marcescens; isolate NP408
  MIC: 6 parts silver per million
Serratia marcescens; isolate NP408, second entry
  MIC: 11 parts silver per million
Streptococcus pyogenes; S. pyog (clin. 303), lactate solutions
  MIC: 3 µg/mL
Streptococcus pyogenes; S. pyog (clin. 304), lactate solutions
  MIC: 5 µg/mL
Streptococcus pyogenes; isolate NP303
  MIC: 3 parts silver per million
Streptococcus pyogenes; isolate NP304
  MIC: 6 parts silver per million
Streptococcus pyogenes; isolate NP306
  MIC: 6 parts silver per million
Staphylococcus aureus; ATCC 6538
  MIC: 6 parts silver per million
Staphylococcus aureus; ATCC 700699
  MIC: 3 parts silver per million
Staphylococcus aureus; S. aureus (ATCC), lactate solutions
  MIC: 11 µg/mL
Staphylococcus aureus; S. aureus (clin.), lactate solutions
  MIC: 5 µg/mL
Staphylococcus aureus; isolate NP101
  MIC: 6 parts silver per million
Staphylococcus aureus; isolate NP102
  MIC: 6 parts silver per million
Staphylococcus aureus; isolate NP103
  MIC: 6 parts silver per million
[1]; ATCC 12228
  MIC: 3 parts silver per million
[1]; S. epiderm (ATCC), lactate solutions
  MIC: 3 µg/mL
[1]; isolate NP136
  MIC: 3 parts silver per million
K. pneumoniae; isolate NP401
  MBC: 3 parts silver per million
K. pneumoniae; isolate NP403
  MBC: 6 parts silver per million
K. pneumoniae; isolate NP403, second entry
  MBC: 3 parts silver per million
K. pneumoniae; isolate NP406
  MBC: 1 parts silver per million
Burkholderia multivorans; isolate B1
  MIC: 3 parts silver per million
Burkholderia multivorans; isolate B2
  MIC: 3 parts silver per million
Burkholderia multivorans; isolate B4
  MIC: 2 parts silver per million
Streptococcus pneumoniae; S. pneumo (clin 314)
  MIC: 11 µg/mL
Streptococcus pneumoniae; S. pneumo (clin 315)
  MIC: 21 µg/mL
Proteus mirabilis
  MIC: 6 parts silver per million
Staph. aureus; ATCC 6538
  MBC: 6 parts silver per million
Staph. aureus; ATCC 700699
  MBC: 6 parts silver per million
Staph. aureus; isolate NP101
  MBC: 11 parts silver per million
Staph. aureus; isolate NP102
  MBC: 6 parts silver per million
Staph. aureus; isolate NP103
  MBC: 6 parts silver per million
Enterobacter cloacae; aerobic +
  MIC: 13 µg/mL
Enterobacter cloacae; aerobic − (anaerobic)
  MIC: 25 µg/mL
B. multivorans; isolate B1
  MBC: 3 parts silver per million
B. multivorans; isolate B2
  MBC: 3 parts silver per million
B. multivorans; isolate B4
  MBC: 3 parts silver per million
[2]
  MIC: 2.5 μg/ml silver
B dolosa; isolate A3
  MBC: 3 parts silver per million
B dolosa; isolate A4
  MBC: 2 parts silver per million
Klebsiella pneumoniae; aerobic +
  MIC: 3 µg/mL
Klebsiella pneumoniae; aerobic − (anaerobic)
  MIC: 3 µg/mL
Klebsiella pneumoniae; isolate NP401
  MIC: 3 parts silver per million
Klebsiella pneumoniae; isolate NP403
  MIC: 6 parts silver per million
Klebsiella pneumoniae; isolate NP403, second entry
  MIC: 6 parts silver per million
Klebsiella pneumoniae; isolate NP406
  MIC: 1 parts silver per million
Burkholderia dolosa; isolate A3
  MIC: 2 parts silver per million
Burkholderia dolosa; isolate A4
  MIC: 2 parts silver per million
Pseudomonas aeruginosa; ATCC 9027
  MIC: 1 parts silver per million
Pseudomonas aeruginosa; ATCC 27317
  MIC: 2 parts silver per million
Pseudomonas aeruginosa; P. aerug (ATCC), lactate solutions
  MIC: 3 µg/mL
Pseudomonas aeruginosa; P. aerug. (clin.), lactate solutions
  MIC: 3 µg/mL
Pseudomonas aeruginosa; isolate NP201
  MIC: 1 parts silver per million
Pseudomonas aeruginosa; isolate NP204
  MIC: 1 parts silver per million
Pseudomonas aeruginosa; isolate NP206
  MIC: 1 parts silver per million
Pseudomonas aeruginosa; isolate NP212, formulation type Lactate
  MIC: 2 ppm
Pseudomonas aeruginosa; isolate NP212, formulation type Water/Lecithin
  MIC: 3 ppm
Pseudomonas aeruginosa; isolate NP212, formulation type Water/PVA
  MIC: 3 ppm
Ps. aeruginosa; ATCC 27317
  MBC: 3 parts silver per million
Ps. aeruginosa; isolate NP201
  MBC: 3 parts silver per million
Ps. aeruginosa; isolate NP204
  MBC: 3 parts silver per million
Ps. aeruginosa; isolate NP206
  MBC: 1 parts silver per million
Ser. marcescens; isolate NP402
  MBC: 6 parts silver per million
Ser. marcescens; isolate NP402, second entry
  MBC: 6 parts silver per million
Ser. marcescens; isolate NP408
  MBC: 6 parts silver per million
Ser. marcescens; isolate NP408, second entry
  MBC: 11 parts silver per million
Citrobacter freundii
  MIC: 3 parts silver per million
Escherichia coli; ATCC 8739
  MIC: 0.4 parts silver per million
Escherichia coli; ATCC 43745
  MIC: 1 parts silver per million
Escherichia coli; E. coli (ATCC), lactate solutions
  MIC: 3 µg/mL
Escherichia coli; isolate NP412
  MIC: 1 parts silver per million
Prot. mirabilis
  MBC: 13 parts silver per million
Staph epidermidis; ATCC 12228
  MBC: 3 parts silver per million
Staph epidermidis; isolate NP136
  MBC: 3 parts silver per million

## O=C(O)c1cc(/N=N/c2ccc(S(=O)(=O)Nc3ccccn3)cc2)ccc1O [sulfasalazine, salicylazosulfapyridine]
DNBS-induced colitis [3]
  histopathological inflammation score: significantly reduced the histopathological inflammation
MMP-9 [4]
  MMP-9 activity: reduced MMP-9 activity
[5]
  body weight: started gaining body weight after one day of treatment
TNF-α
  expression of TNF-α in colonic tissue: significantly reduced the expression of TNF-α and IL-1β
MMP-9 [6]
  expression of MMP-9 in colonic tissue: significantly reduced the expression of MMP-9
IL-1β
  expression of IL-1β in colonic tissue: significantly reduced the expression of TNF-α and IL-1β
DNBS-induced colitis [7]; intracolonic 100 mg/kg
  total IBD score: Significant reduction of IBD score; also recorded: significantly reduced total IBD score
DNBS-induced colitis [7]; intracolonic 100 mg/kg, listed as Sulfasalazine
  total IBD score: significantly reduced total IBD score
DNBS-induced colitis [7]; oral 100 mg/kg
  total IBD score: significant reduction of the IBD score
